# Legend:
# [1] = tested on: H2122; assay: CellTiter 96 MTT cell proliferation assay (Example 9); format: cell-based, human
# Experimental: (§1) Cell lines derived from human non-small cell lung cancers are obtained from American Type Culture Collection (ATCC, Manassas, Va.), and are designated by their NCI numbers. Cells are maintained in RPMI 1640 medium (Gibco, Invitrogen, Carlsbad, Calif.), supplemented with 10% fetal calf serum (Gemini Bio-Products, Sacramento, Calif.), 100 U/mL penicillin/streptomycin, and 2 mM glutamine at 37° C. and 5% CO2.
# (§2) For proliferation assays cells are seeded at 2×10^4/well in 96-well plates, allowed to adhere for 24 hrs, and then are treated with the drug or DMSO as a control for 48 hours. […] Compounds are prepared as 10 mM stock solution in dimethyl sulfoxide (Sigma, St. Louis, Mo.). Increasing drug concentrations in 10 μL of phosphate-buffered saline (PBS) are added to 100 μL of the culture medium and incubated at 37° C. for 72 h. The CellTiter 96 non-radioactive cell proliferation assay (MTT assay, Promega, Madison, Wis.), is performed according to the manufacturer's protocol. Each compound concentration is represented in six repeats, and the screening is performed as at least two independent experiments. IC50 values are calculated using Sigma Plot software (Systat Software).
# [2] = tested on: H1373; assay: as above; format: cell-based, human
# Experimental: as §1, §2
# [3] = tested on: H441; assay: as above; format: cell-based, human
# Experimental: as §1, §2
# [4] = tested on: H1944; assay: as above; format: cell-based, human
# Experimental: as §1, §2
# [5] = tested on: H1703; assay: as above; format: cell-based, human
# Experimental: as §1, §2
# [6] = tested on: H2122/CRL5985; assay: MTT proliferation assay, JS-K 48 h (Example 3); format: cell-based, human; conditions: 10 concentrations 50 nM to 50 μM
# Experimental: (§3) JS-K is synthesized as described previously (Saavedra et al., J. Org. Chem., 66: 3090-3098(2001)). Cell lines are obtained from the American Type Culture Collection (Manassas, Va.) and cultured according to the supplier's protocol. For proliferation assays cells are seeded at 2×10^4 per well in 96-well plates and allowed to adhere for 24 h. JS-K is prepared as 10 mM stock solution in DMSO. Increasing drug concentrations in 10 μL of PBS are added to 100 μL of the culture medium for 48 h. MTT assay (Promega, Madison, Wis.) is performed according to the manufacturer's protocol. Each concentration is represented in six repeats, and the screening is performed as at least two independent experiments. IC50 values are calculated using Sigma Plot software (Systat Software, Chicago, Ill.).
# [7] = tested on: H441/HTB174; assay: MTT proliferation assay, JS-K 48 h (Example 3); format: cell-based, human; conditions: 10 concentrations 50 nM to 50 μM
# Experimental: as §3
# [8] = tested on: H1568/CRL5876; assay: MTT proliferation assay, JS-K 48 h (Example 3); format: cell-based, human; conditions: 10 concentrations 50 nM to 50 μM
# Experimental: as §3
# [9] = tested on: H1734/CRL5891; assay: MTT proliferation assay, JS-K 48 h (Example 3); format: cell-based, human; conditions: 10 concentrations 50 nM to 50 μM
# Experimental: as §3
# [10] = tested on: H1792/CRL5895; assay: MTT proliferation assay, JS-K 48 h (Example 3); format: cell-based, human; conditions: 10 concentrations 50 nM to 50 μM
# Experimental: as §3
# [11] = tested on: H2126/CRL5925; assay: MTT proliferation assay, JS-K 48 h (Example 3); format: cell-based, human; conditions: 10 concentrations 50 nM to 50 μM
# Experimental: as §3
# [12] = tested on: H2030/CRL5914; assay: MTT proliferation assay, JS-K 48 h (Example 3); format: cell-based, human; conditions: 10 concentrations 50 nM to 50 μM
# Experimental: as §3
# [13] = tested on: H838/CRL5844; assay: MTT proliferation assay, JS-K 48 h (Example 3); format: cell-based, human; conditions: 10 concentrations 50 nM to 50 μM
# Experimental: as §3
# [14] = tested on: H322/CRL5806; assay: MTT proliferation assay, JS-K 48 h (Example 3); format: cell-based, human; conditions: 10 concentrations 50 nM to 50 μM
# Experimental: as §3
# [15] = tested on: H1373/CRL5866; assay: MTT proliferation assay, JS-K 48 h (Example 3); format: cell-based, human; conditions: 10 concentrations 50 nM to 50 μM
# Experimental: as §3
# [16] = tested on: H2023/CRL5912; assay: MTT proliferation assay, JS-K 48 h (Example 3); format: cell-based, human; conditions: 10 concentrations 50 nM to 50 μM
# Experimental: as §3
# [17] = tested on: H460/HTB177; assay: MTT proliferation assay, JS-K 48 h (Example 3); format: cell-based, human; conditions: 10 concentrations 50 nM to 50 μM
# Experimental: as §3
# [18] = tested on: H1693/CRL5887; assay: MTT proliferation assay, JS-K 48 h (Example 3); format: cell-based, human; conditions: 10 concentrations 50 nM to 50 μM
# Experimental: as §3
# [19] = tested on: H1355/CRL5865; assay: MTT proliferation assay, JS-K 48 h (Example 3); format: cell-based, human; conditions: 10 concentrations 50 nM to 50 μM
# Experimental: as §3
# [20] = tested on: H1944/CRL5907; assay: MTT proliferation assay, JS-K 48 h (Example 3); format: cell-based, human; conditions: 10 concentrations 50 nM to 50 μM
# Experimental: as §3
# [21] = tested on: A549/CCL185; assay: MTT proliferation assay, JS-K 48 h (Example 3); format: cell-based, human; conditions: 10 concentrations 50 nM to 50 μM
# Experimental: as §3
# [22] = tested on: H1395/CRL5868; assay: MTT proliferation assay, JS-K 48 h (Example 3); format: cell-based, human; conditions: 10 concentrations 50 nM to 50 μM
# Experimental: as §3
# [23] = tested on: H1703/CRL5889; assay: MTT proliferation assay, JS-K 48 h (Example 3); format: cell-based, human; conditions: 10 concentrations 50 nM to 50 μM
# Experimental: as §3
# [24] = tested on: mitochondrial superoxide; assay: Mitochondrial superoxide level, MitoSOX; format: cell-based, human
# Experimental: Mitochondrial superoxide level is measured using MitoSOX fluorescent dye (Invitrogen, Carlsbad, Calif.), according to the manufacturer's protocol. Rotenone (10 μM) is used as a positive control.
# [25] = tested on: H1703 cells; assay: H1703 xenograft in athymic NCr-nu/nu mice, tumor weights (Example 10); format: in vivo; conditions: 6 micromols/kg i.v., three times a week for three weeks
# Experimental: H1703 cells are harvested at 80% confluence, washed with PBS, and suspended in PBS. The cells are injected at 5×10^6 s.c. into a flank of 7-week-old female athymic NCr-nu/nu mice (Charles River). […] Animals are treated three times a week for three weeks with i.v. tail vein injections of either vehicle (2.25% P-123 in PBS) or 1 or 2 (6 micromols/kg in the vehicle) or 6 (8 micromols/kg). Body weights are taken before each drug injection. Animals are sacrificed two hours after the last drug injection and the tumors are excised and weighed. There are 13-15 mice/group at termination. The non-parametric Mann-Whitney test is utilized for statistical comparisons of tumor weights.
structure (smiles),measurement,setting,value
CCOC(=O)N1CCN(/[N+]([O-])=N/Oc2ccc([N+](=O)[O-])cc2[N+](=O)[O-])CC1 [Compound 1],IC50,[1],3.17 µM
same,IC50,[2],0.86 µM
same,IC50,[3],0.94 µM
same,IC50,[4],> 10 µM
same,IC50,[5],0.57 µM
same,IC50,[6],6.09 µM
same,IC50,[7],1.01 µM
same,IC50,[8],0.4 µM
same,IC50,[9],0.36 µM
same,IC50,[10],9.08 µM
same,IC50,[11],4.13 µM
same,IC50,[12],14.7 µM
same,IC50,[13],5.84 µM
same,IC50,[14],8.71 µM
same,IC50,[15],0.97 µM
same,IC50,[16],11.6 µM
same,IC50,[17],7.61 µM
same,IC50,[18],0.33 µM
same,IC50,[19],7.93 µM
same,IC50,[20],17.6 µM
same,IC50,[21],7.6 µM
same,IC50,[22],3.17 µM
same,IC50,[23],0.4 µM
same,mitochondrial superoxide generation,[24],increase
same,growth of H1703 human NSCLC cells in vivo vs vehicle,[25],significantly reduced growth
same,reduction of the tumor weights,[25]; vs vehicle,49%
